# Measured values as given in publication PMC11005723, “Development of Complementary Photo‐arginine/lysine to Promote Discovery of Arg/Lys hPTMs Interactomes” (Advanced Science, 2024).
# Read-outs that look alike come from different tables or passages of the source. Non-standard residues stand in square brackets, D forms with d. No end group written: not given here. *: point of attachment. Biotin = O=C1N[C@H]2[C@H](CS[C@H]2CCCCC(=O)*)N1; R(dz) = photo-arginine
# Test system: HEK293T nuclear lysates
# Assay: SILAC‐based pull‐down proteomics H4K5acK8ac/H4K5 (probes 8/5)
# Format: binding, human
substance,measurement,setting,value
probe 8: H4K5acK8ac peptide probe with photo‐arginine R(dz) and K(biotin) (SG[R(dz)]GK(Ac)GGK(Ac)GLGKGGK(Biotin)),A6 log2 (H4K5ac8ac/H4K5),,0.04066
same,B6 log2 (H4K5ac8ac/H4K5),,0.03161
same,proteins enriched (SILAC proteomics H4K5acK8ac/H4K5),"365 nm UV 30 min, streptavidin enrichment, n = 2",YEATS4 was enriched
same,A6 log2 (H4K5ac8ac/H4K5),"protein ACO2 (Q99798), replicate A6",0.4428
same,B6 log2 (H4K5ac8ac/H4K5),"protein ACO2 (Q99798), replicate B6",0.07379
same,A6 log2 (H4K5ac8ac/H4K5),"protein ACOT7 (O00154), replicate A6",0.4709
same,B6 log2 (H4K5ac8ac/H4K5),"protein ACOT7 (O00154), replicate B6",-0.02566
same,A6 log2 (H4K5ac8ac/H4K5),"protein AGPS (O00116), replicate A6",-0.04144
same,B6 log2 (H4K5ac8ac/H4K5),"protein AGPS (O00116), replicate B6",0.004198
same,A6 log2 (H4K5ac8ac/H4K5),"protein ALDH18A1 (P54886), replicate A6",0.1932
same,B6 log2 (H4K5ac8ac/H4K5),"protein ALDH18A1 (P54886), replicate B6",0.05067
same,A6 log2 (H4K5ac8ac/H4K5),"protein BUB3 (J3QT28), replicate A6",0.07833
same,B6 log2 (H4K5ac8ac/H4K5),"protein BUB3 (J3QT28), replicate B6",0.05185
same,A6 log2 (H4K5ac8ac/H4K5),"protein C11orf84 (Q9BUA3), replicate A6",-0.4738
same,B6 log2 (H4K5ac8ac/H4K5),"protein C11orf84 (Q9BUA3), replicate B6",-0.01921
same,A6 log2 (H4K5ac8ac/H4K5),"protein CCAR1 (Q8IX12), replicate A6",-0.2516
same,B6 log2 (H4K5ac8ac/H4K5),"protein CCAR1 (Q8IX12), replicate B6",-0.018
same,A6 log2 (H4K5ac8ac/H4K5),"protein CCT2 (P78371), replicate A6",0.3921
same,B6 log2 (H4K5ac8ac/H4K5),"protein CCT2 (P78371), replicate B6",0.08005
same,A6 log2 (H4K5ac8ac/H4K5),"protein CCT3 (B4DUR8), replicate A6",0.2904
same,B6 log2 (H4K5ac8ac/H4K5),"protein CCT3 (B4DUR8), replicate B6",0.07923
same,A6 log2 (H4K5ac8ac/H4K5),"protein CHAF1A (Q13111), replicate A6",-0.1099
same,B6 log2 (H4K5ac8ac/H4K5),"protein CHAF1A (Q13111), replicate B6",0.08018
same,A6 log2 (H4K5ac8ac/H4K5),"protein CHD1L (A0A494C1F7), replicate A6",0.1451
same,B6 log2 (H4K5ac8ac/H4K5),"protein CHD1L (A0A494C1F7), replicate B6",0.0657
same,A6 log2 (H4K5ac8ac/H4K5),"protein CORO1B (Q9BR76), replicate A6",0.2889
same,B6 log2 (H4K5ac8ac/H4K5),"protein CORO1B (Q9BR76), replicate B6",0.06919
same,A6 log2 (H4K5ac8ac/H4K5),"protein CPOX (P36551), replicate A6",0.124
same,B6 log2 (H4K5ac8ac/H4K5),"protein CPOX (P36551), replicate B6",0.04785
same,A6 log2 (H4K5ac8ac/H4K5),"protein DNAJA2 (O60884), replicate A6",0.3475
same,B6 log2 (H4K5ac8ac/H4K5),"protein DNAJA2 (O60884), replicate B6",-0.007896
same,A6 log2 (H4K5ac8ac/H4K5),"protein DYNC1LI1 (Q9Y6G9), replicate A6",0.04173
same,B6 log2 (H4K5ac8ac/H4K5),"protein DYNC1LI1 (Q9Y6G9), replicate B6",-0.03653
same,A6 log2 (H4K5ac8ac/H4K5),"protein DYNC1LI2 (O43237), replicate A6",-0.06254
same,B6 log2 (H4K5ac8ac/H4K5),"protein DYNC1LI2 (O43237), replicate B6",-0.0172
same,A6 log2 (H4K5ac8ac/H4K5),"protein EEF1A2 (Q05639), replicate A6",0.1545
same,B6 log2 (H4K5ac8ac/H4K5),"protein EEF1A2 (Q05639), replicate B6",0.03088
same,A6 log2 (H4K5ac8ac/H4K5),"protein EIF3G (O75821), replicate A6",-0.1739
same,B6 log2 (H4K5ac8ac/H4K5),"protein EIF3G (O75821), replicate B6",0.07863
same,A6 log2 (H4K5ac8ac/H4K5),"protein EML4 (Q9HC35), replicate A6",-0.3051
same,B6 log2 (H4K5ac8ac/H4K5),"protein EML4 (Q9HC35), replicate B6",0.01001
same,A6 log2 (H4K5ac8ac/H4K5),"protein EXOSC10 (Q01780), replicate A6",0.04791
same,B6 log2 (H4K5ac8ac/H4K5),"protein EXOSC10 (Q01780), replicate B6",-0.03432
same,A6 log2 (H4K5ac8ac/H4K5),"protein FEN1 (P39748), replicate A6",0.2678
same,B6 log2 (H4K5ac8ac/H4K5),"protein FEN1 (P39748), replicate B6",0.04436
same,A6 log2 (H4K5ac8ac/H4K5),"protein FKBP4 (Q02790), replicate A6",-0.547
same,B6 log2 (H4K5ac8ac/H4K5),"protein FKBP4 (Q02790), replicate B6",-0.03149
same,A6 log2 (H4K5ac8ac/H4K5),"protein FTO (A0A1B0GTY1), replicate A6",0.04491
same,B6 log2 (H4K5ac8ac/H4K5),"protein FTO (A0A1B0GTY1), replicate B6",0.03394
same,A6 log2 (H4K5ac8ac/H4K5),"protein FUBP1 (Q96AE4), replicate A6",-0.499
same,B6 log2 (H4K5ac8ac/H4K5),"protein FUBP1 (Q96AE4), replicate B6",0.06296
same,A6 log2 (H4K5ac8ac/H4K5),"protein GATAD2B (A0A0U1RRM1), replicate A6",0.09181
same,B6 log2 (H4K5ac8ac/H4K5),"protein GATAD2B (A0A0U1RRM1), replicate B6",-0.04991
same,A6 log2 (H4K5ac8ac/H4K5),"protein GMPS (P49915), replicate A6",0.3016
same,B6 log2 (H4K5ac8ac/H4K5),"protein GMPS (P49915), replicate B6",-0.02008
same,A6 log2 (H4K5ac8ac/H4K5),"protein GPKOW (Q92917), replicate A6",-0.007755
same,B6 log2 (H4K5ac8ac/H4K5),"protein GPKOW (Q92917), replicate B6",0.07952
same,A6 log2 (H4K5ac8ac/H4K5),"protein GTF2I (P78347), replicate A6",0.3176
same,B6 log2 (H4K5ac8ac/H4K5),"protein GTF2I (P78347), replicate B6",-0.03285
same,A6 log2 (H4K5ac8ac/H4K5),"protein HADHA (P40939), replicate A6",0.03109
same,B6 log2 (H4K5ac8ac/H4K5),"protein HADHA (P40939), replicate B6",0.08176
same,A6 log2 (H4K5ac8ac/H4K5),"protein HNRNPA2B1 (P22626), replicate A6",-0.08912
same,B6 log2 (H4K5ac8ac/H4K5),"protein HNRNPA2B1 (P22626), replicate B6",0.03979
same,A6 log2 (H4K5ac8ac/H4K5),"protein HNRNPAB (D6R9P3), replicate A6",-0.001487
same,B6 log2 (H4K5ac8ac/H4K5),"protein HNRNPAB (D6R9P3), replicate B6",0.001897
same,A6 log2 (H4K5ac8ac/H4K5),"protein HNRNPD (D6RAF8), replicate A6",-0.05205
same,B6 log2 (H4K5ac8ac/H4K5),"protein HNRNPD (D6RAF8), replicate B6",0.06546
same,A6 log2 (H4K5ac8ac/H4K5),"protein HNRNPM (A0A087X0X3), replicate A6",0.04259
same,B6 log2 (H4K5ac8ac/H4K5),"protein HNRNPM (A0A087X0X3), replicate B6",0.03533
same,A6 log2 (H4K5ac8ac/H4K5),"protein HNRNPUL1 (A0A0A0MRA5), replicate A6",0.04263
same,B6 log2 (H4K5ac8ac/H4K5),"protein HNRNPUL1 (A0A0A0MRA5), replicate B6",0.07976
same,A6 log2 (H4K5ac8ac/H4K5),"protein HSP90AB1 (P08238), replicate A6",0.1705
same,B6 log2 (H4K5ac8ac/H4K5),"protein HSP90AB1 (P08238), replicate B6",-0.003539
same,A6 log2 (H4K5ac8ac/H4K5),"protein ILF3 (Q12906), replicate A6",-0.01185
same,B6 log2 (H4K5ac8ac/H4K5),"protein ILF3 (Q12906), replicate B6",0.0307
same,A6 log2 (H4K5ac8ac/H4K5),"protein IRS4 (O14654), replicate A6",0.9009
same,B6 log2 (H4K5ac8ac/H4K5),"protein IRS4 (O14654), replicate B6",0.04996
same,A6 log2 (H4K5ac8ac/H4K5),"protein KHDRBS1 (Q07666), replicate A6",-0.03568
same,B6 log2 (H4K5ac8ac/H4K5),"protein KHDRBS1 (Q07666), replicate B6",0.03173
same,A6 log2 (H4K5ac8ac/H4K5),"protein KIF23 (A0A2U3TZL8), replicate A6",-0.125
same,B6 log2 (H4K5ac8ac/H4K5),"protein KIF23 (A0A2U3TZL8), replicate B6",0
same,A6 log2 (H4K5ac8ac/H4K5),"protein LARS (Q9P2J5), replicate A6",0.1335
same,B6 log2 (H4K5ac8ac/H4K5),"protein LARS (Q9P2J5), replicate B6",0.07151
same,A6 log2 (H4K5ac8ac/H4K5),"protein LEMD3 (Q9Y2U8), replicate A6",0.3015
same,B6 log2 (H4K5ac8ac/H4K5),"protein LEMD3 (Q9Y2U8), replicate B6",-0.02986
same,A6 log2 (H4K5ac8ac/H4K5),"protein MAZ (I3L2Z5), replicate A6",0.4619
same,B6 log2 (H4K5ac8ac/H4K5),"protein MAZ (I3L2Z5), replicate B6",0.02009
same,A6 log2 (H4K5ac8ac/H4K5),"protein MCM2 (P49736), replicate A6",-0.3105
same,B6 log2 (H4K5ac8ac/H4K5),"protein MCM2 (P49736), replicate B6",0.01892
same,A6 log2 (H4K5ac8ac/H4K5),"protein MCM4 (E5RG31), replicate A6",-0.08812
same,B6 log2 (H4K5ac8ac/H4K5),"protein MCM4 (E5RG31), replicate B6",0.02676
same,A6 log2 (H4K5ac8ac/H4K5),"protein MCM5 (P33992), replicate A6",0.07464
same,B6 log2 (H4K5ac8ac/H4K5),"protein MCM5 (P33992), replicate B6",0.03074
same,A6 log2 (H4K5ac8ac/H4K5),"protein MCM6 (Q14566), replicate A6",0.0904
same,B6 log2 (H4K5ac8ac/H4K5),"protein MCM6 (Q14566), replicate B6",0.06523
same,A6 log2 (H4K5ac8ac/H4K5),"protein MLL2 (O14686), replicate A6",0.2969
same,B6 log2 (H4K5ac8ac/H4K5),"protein MLL2 (O14686), replicate B6",0.009441
same,A6 log2 (H4K5ac8ac/H4K5),"protein MRPL37 (Q9BZE1), replicate A6",0.1893
same,B6 log2 (H4K5ac8ac/H4K5),"protein MRPL37 (Q9BZE1), replicate B6",-0.03363
same,A6 log2 (H4K5ac8ac/H4K5),"protein MYH9 (P35579), replicate A6",0.0533
